Measured values as given in ChEMBL document CHEMBL4622926, “Fibroblast growth factor receptor modulators employing diamines with reduced phospholipidosis-inducing potential” (Bioorg Med Chem, 2020).

What was measured:
CYP3A4 = CYP3A4 (Homo sapiens, UniProt P08684); test: (§1) Mechanism based inactivation of CYP3A4 in human liver microsome assessed as remaining activity at 100 uM preincubated for 30 mins followed testosterone addition and measured after 10 mins by LC-MS/MS analysis relative to control; type: ADME, microsomes; settings: human liver microsomes, probe testosterone, read-out: Activity
Chain of CYP3A4 (P08684 whole entry): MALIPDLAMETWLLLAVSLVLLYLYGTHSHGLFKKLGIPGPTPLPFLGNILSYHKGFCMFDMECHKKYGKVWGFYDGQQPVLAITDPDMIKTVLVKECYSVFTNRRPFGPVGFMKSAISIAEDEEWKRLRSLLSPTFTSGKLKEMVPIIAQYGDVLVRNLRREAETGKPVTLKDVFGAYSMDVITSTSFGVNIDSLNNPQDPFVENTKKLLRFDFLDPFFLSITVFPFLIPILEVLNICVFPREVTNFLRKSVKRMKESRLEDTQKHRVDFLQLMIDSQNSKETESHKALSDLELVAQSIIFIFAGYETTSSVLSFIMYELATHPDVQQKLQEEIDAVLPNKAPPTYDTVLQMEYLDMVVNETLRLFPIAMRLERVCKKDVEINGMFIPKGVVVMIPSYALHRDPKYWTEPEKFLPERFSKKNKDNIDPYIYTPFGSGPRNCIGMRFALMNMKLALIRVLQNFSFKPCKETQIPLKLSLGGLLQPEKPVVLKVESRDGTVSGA

[1] = Partition coefficient, logP of compound by RP-HPLC analysis; type: physicochemical; settings: octanol/water
Rattus norvegicus [2] = species: Rattus norvegicus; test: Modulation of FGFR in Wistar rat cerebrocortical/hippocampal neuronal cells assessed as protection against glutamate-induced neuronal cell death by measuring cell survival at 10 uM pretreated for 24 hrs followed by glutamate-stimulation by CCK8 assay relative to SUN13837
Cytochrome P450 3A4 = Cytochrome P450 3A4 (Homo sapiens, UniProt P08684); test: as §1; type: ADME, microsomes; settings: microsomes, 10 min, 100 µM
Chain of Cytochrome P450 3A4 (P08684 whole entry): as above

[3] = Elimination half life in Crl:CD(SD) rat at 1 mg/kg, iv by LC-MS/MS analysis; type: ADME, organism-based; settings: in vivo, read-out: beta t1/2 (converted)
[4] = Drug metabolism in human liver microsomes assessed as carboxylesterase-mediated hydrolytic rate for diamine compound formation at 100 uM incubated for 60 mins in absence of NADPH measured per mg protein by LC-MS/MS analysis; type: ADME; settings: 1 h
[5] = AUC in Crl:CD(SD) rat at 10 mg/kg, po by LC-MS/MS analysis; type: ADME, organism-based; settings: in vivo
[6] = Oral bioavailability in Crl:CD(SD) rat at 10 mg/kg by LC-MS/MS analysis; type: ADME, organism-based; settings: in vivo
[7] = Volume of distribution in Crl:CD(SD) rat at 1 mg/kg, iv by LC-MS/MS analysis; type: ADME, organism-based; settings: in vivo
Rattus norvegicus [8] = test: Neuroprotective activity against microsphere induced Crl:CD(SD) rat cerebral embolism model assessed as recovery of motor coordination by measuring latency time at 1 mg/kg, po administered daily for 10 days starting from day 1 post microsphere injection and measured at 2 weeks after microsphere injection by rotarod test (reference value: 189.1 secs); type: functional
[9] = Clearance in Crl:CD(SD) rat at 1 mg/kg, iv by LC-MS/MS analysis; type: ADME, organism-based; settings: in vivo
[10] = Ratio of drug level in Crl:CD(SD) rat brain to plasma at 1 mg/kg, iv measured after 1 hr by LC-MS/MS analysis; type: ADME, organism-based
[11] = Oral bioavailability in Crl:CD(SD) rat at 5 mg/kg by LC-MS/MS analysis; type: ADME, organism-based; settings: in vivo
[12] = AUC in Crl:CD(SD) rat at 5 mg/kg, po by LC-MS/MS analysis; type: ADME, organism-based; settings: in vivo

activity at 10 min, 100 µM (CYP3A4) [%] | logP ([1]; read-out: logP) | Structure (SMILES) | Activity (Rattus norvegicus [2]) [%] | further results
100 | 2.6 | CN(C(=O)COc1ccc(Cl)nn1)C1CCN(Cc2ncccc2F)CC1 | 44 | –
97 | 1.2 | Cc1nc(OCC(=O)N(C)C2CCN(C3(C)COC3)CC2)nc(C)c1N | 59 | –
62 | 1.7 | Cc1nc(OCC(=O)N(C)C2CCN(Cc3ncccc3F)CC2)nc(C)c1N | 119 | –
75 | 2.6 | Cc1nc(OCC(=O)N(C)C2CCN(CC(F)(F)F)CC2)nc(C)c1N | 103 | –
95 | 1.1 | Cc1nc(OCC(=O)N(C)C2CCN(C3COC3)CC2)nc(C)c1N | 78 | –
60 | – | Cc1nc(OCC(=O)N(C)C2CCN(Cc3ccccc3)CC2)nc(C)c1N | – | half-life [3]: 1.4 h; Drug metabolism [4]: 7.2 pmol/min; AUC [5]: 3700 ng·h/mL; bioavailability [6]: 70%; Vd [7]: 2.3 L/kg; Time (Rattus norvegicus [8]): 307 s; clearance [9]: 41.7 mL/min/kg; Kp at 1 h [10]: 0.15
86 | 2.2 | Cc1nc(OCC(=O)N(C)C2CCN(CC3CC3(F)F)CC2)nc(C)c1N.Cl (racemic) | 189 | half-life [3]: 2.7 h; Vd [7]: 3.2 L/kg; clearance [9]: 38.3 mL/min/kg; Kp at 1 h [10]: 0.12; bioavailability [11]: 52%; AUC [12]: 1100 ng·h/mL
98 | 2 | Cc1nc(OCC(=O)N(C)C2CCN(CC(F)F)CC2)nc(C)c1N | 76 | –
100 | 4 | CN(C(=O)COc1ccc(Cl)nn1)C1CCN(CC(F)(F)F)CC1 | 74 | –
99 | 3.1 | CN(C(=O)COc1ccc(Cl)nn1)C1CCN(CC2CC2(F)F)CC1 (centres undefined) | 105 | half-life [3]: 1.7 h; Drug metabolism [4]: 0 pmol/min; Vd [7]: 4.2 L/kg; Time (Rattus norvegicus [8]): 315.5 s; clearance [9]: 38.3 mL/min/kg; Kp at 1 h [10]: 0.92; bioavailability [11]: 73%; AUC [12]: 1590 ng·h/mL
97 | 0.7 | Cc1nc(OCC(=O)N(C)C2CCN(CC(C)(C)O)CC2)nc(C)c1N | 74 | –
99 | 1 | Cc1nc(OCC(=O)N(C)C2CCN(Cc3ncccn3)CC2)nc(C)c1N | 96 | –

Second part, the compound before the results:

Structure (SMILES) | activity at 10 min, 100 µM (CYP3A4) [%] | logP ([1]; read-out: logP) | Activity (Rattus norvegicus [2]) [%] | further results
Cc1nc(OCC(=O)N(C)C2CN(Cc3ccccc3)CC2F)nc(C)c1N.Cl (centres undefined) | – | – | – | Activity (Cytochrome P450 3A4): 96%; logP [1]: 4.8
Cc1nc(OCC(=O)N(C)C2CCN(Cc3ccccc3)C2)nc(C)c1N (centres undefined) | 55 | 2.6 | 77 | –
CC(C)Cc1ccc(C(C)C(=O)O)cc1 (centres undefined) [IBUPROFEN] | – | 2.97 | – | –
Cc1nc(OCC(=O)N2CC[C@@H]3[C@H]2CN3Cc2ccccc2)nc(C)c1N | 40 | 2.8 | 87 | –
Cc1nc(OCC(=O)N(C)C2CN(Cc3ccccc3)CC2F)nc(C)c1N (centres undefined) | – | 3.7 | – | Activity (Cytochrome P450 3A4): 16%
Cc1nc(OCC(=O)N(C)C2CN(Cc3ccccc3)C2)nc(C)c1N | 58 | 2.1 | 127 | –
Cc1nc(OCC(=O)N(C)[C@H]2CN(Cc3ccccc3)C[C@@H]2O)nc(C)c1N (relative stereo) | 55 | 2.4 | 93 | –
C[C@@H]1C[C@H]2[C@@H]3CCC4=CC(=O)C=C[C@]4(C)[C@@]3(F)[C@@H](O)C[C@]2(C)[C@@]1(O)C(=O)CO [DEXAMETHASONE] | – | 2.82 | – | –
